The text below walks through data of US9750255B2, “Agricultural or horticultural chemical, method of controlling plant diseases, and product for controlling plant diseases” (Kureha Corporation, priority 2013, dated 2017).

One experiment relates to Fusarium graminearum. As to the kind of experiment: microbe, parasite or virus in culture. The class given is cell-based.
In the next experiment the test system is Penicilium italicum. As to the kind of experiment: In vitro antimicrobial activity test, colony diameter on PDA plate, Penicilium italicum.
A further experiment relates to Phaeosphaeria nodorum. As to the kind of experiment: In vitro antimicrobial activity test, colony diameter on PDA plate, Phaeosphaeria nodorum.
In the next experiment the test system is Microdochium nivale. Nature of the experiment: In vitro antimicrobial activity test, colony diameter on PDA plate, Microdochium nivale.
Another experiment has as its system Septoria tritici. As to the kind of experiment: In vitro antimicrobial activity test, colony diameter on PDA plate, Septoria tritici. The conditions noted are these: for Fungal growth inhibition rate (%) Measured value: 25° C., 14 days.
The mark [1] stands for this setting: Fusarium graminearum, 72 h, read-out: Fungal growth inhibition rate (%) Measured value.
The mark [2] stands for this setting: Zymoseptoria tritici, 336 h, read-out: Fungal growth inhibition rate (%) Measured value.
[3] abbreviates: Parastagonospora nodorum, 168 h, read-out: Fungal growth inhibition rate (%) Measured value.
Where [4] appears, read: Microdochium nivale, 72 h, read-out: Fungal growth inhibition rate (%) Measured value.
Setting [5] is: 72 h, read-out: Fungal growth inhibition rate (%) Measured value.

One may read the inhibition as how much of the control response was suppressed.

Regarding `Fc1ccc([C@]2(Cn3cncn3)O[C@H]2c2ccccc2Cl)cc1` (racemic) [Epoxiconazole, epoxiconazole], in the experiment with Fusarium graminearum (setting [1]), the inhibition at 0.01 ppm was found to be 22%, the inhibition at 0.04 ppm amounted to 27%, the inhibition at 0.16 ppm turned out to be 39% and the inhibition at 0.63 ppm worked out at 57%. In addition, in the experiment on Fusarium graminearum (setting [1]), the inhibition at 2.5 ppm was 88%.
Regarding `COC(=O)C1(C)CCC(Cc2ccc(Cl)cc2)C1(O)Cn1cncn1` (stereo not drawn) [Compound (1), methyl 3-(4-chlorobenzyl)-2-hydroxy-1-methyl-2-(1H-1,2,4-triazole-1-ylmethyl)cyclopentane carbonate], the “Fungal growth inhibition rate (%) Measured value” with Fusarium graminearum (Test Example 3, compound (1) 1.25 ppm alone, 25° C., 3 days) amounted to 93%; with Penicilium italicum (Test Example 5, compound (1) 1.25 ppm alone, 25° C., 3 days), 83%; in the experiment on Phaeosphaeria nodorum (Test Example 6, compound (1) 1.25 ppm alone, 25° C., seven days) it was 89%; with Microdochium nivale (Test Example 4, compound (1) 0.313 ppm alone, 25° C., 3 days) it was 26%; in the experiment with Septoria tritici (Test Example 1, compound (1) 0.005 ppm alone) it was 35%; in the experiment with Septoria tritici (Test Example 2, compound (1) 0.02 ppm alone), 3%. Moreover, the “Fungal growth inhibition rate (%) Measured value” in the experiment with Septoria tritici (Test Example 7, compound (1) 1.25 ppm alone) is reported as 70%; in the experiment on Septoria tritici (Test Example 8, compound (1) 1.25 ppm alone), 77%.
As to `CC(Cc1ccc(C(C)(C)C)cc1)CN1CCCCC1` (stereo not drawn) [Fenpropidine, fenpropidine], the “Fungal growth inhibition rate (%) Measured value” with Septoria tritici (Test Example 8, fenpropidine 0.04 ppm alone) is 0%; in the experiment on Septoria tritici (Test Example 8, fenpropidine 0.16 ppm alone), 0%; in the experiment with Septoria tritici (Test Example 8, fenpropidine 0.63 ppm alone), 40%; in the experiment on Septoria tritici (Test Example 8, fenpropidine 2.50 ppm alone), 38%; in the experiment with Septoria tritici (Test Example 8, fenpropidine 10.00 ppm alone), 40%.
`CC(Cc1ccc(C(C)(C)C)cc1)CN1C[C@@H](C)O[C@@H](C)C1` (stereo partly drawn) [Fenpropimorph, fenpropimorph]: in the experiment with Septoria tritici (setting [2]), the inhibition at 0.04 ppm turned out to be 16%, the inhibition at 0.16 ppm is 21%, the inhibition at 0.63 ppm was found to be 23% and the inhibition at 2.5 ppm was 42%. Also, in the experiment with Septoria tritici (setting [2]), the inhibition at 10 ppm was 45%.
Regarding `CC(C)C1CCC(Cc2ccc(Cl)cc2)C1(O)Cn1cncn1` (stereo not drawn) [Ipconazole, ipconazole], in the experiment on Phaeosphaeria nodorum (setting [3]), the inhibition at 0.01 ppm was found to be 20%, the inhibition at 0.04 ppm amounted to 31%, the inhibition at 0.16 ppm amounted to 62% and the inhibition at 0.63 ppm stood at 76%.
Regarding `CC1(C)CCC(Cc2ccc(Cl)cc2)C1(O)Cn1cncn1` (stereo not drawn) [Metconazole, metconazole], in the experiment with Septoria tritici (setting [2]), the inhibition at 0.01 ppm came out at 0%, the inhibition at 0.039 ppm was 0%, the inhibition at 0.156 ppm stood at 11% and the inhibition at 0.625 ppm came to 56%. Further, the inhibition at 2.5 ppm in the experiment on Septoria tritici (setting [2]) is 98%.
Regarding `CCCC1COC(Cn2cncn2)(c2ccc(Cl)cc2Cl)O1` (stereo not drawn) [Propiconazole, propiconazole], in the experiment with Microdochium nivale (setting [4]), the inhibition at 0.156 ppm is 0%, the inhibition at 0.625 ppm turned out to be 45% and the inhibition at 2.5 ppm came out at 76%.
`OC(Cc1ccccc1Cl)(Cn1nc[nH]c1=S)C1(Cl)CC1` (stereo not drawn) [Prothioconazole, prothioconazole]: in the experiment on Septoria tritici (setting [2]), the inhibition at 0.01 ppm is 0%, the inhibition at 0.039 ppm came out at 10%, the inhibition at 0.156 ppm came out at 21% and the inhibition at 0.625 ppm was found to be 51%. Further, in the experiment on Septoria tritici (setting [2]), the inhibition at 2.5 ppm was 100%.
As for `CC(C)(C)C(O)(CCc1ccc(Cl)cc1)Cn1cncn1` (stereo not drawn) [Tebuconazole, tebuconazole], in the experiment on Penicilium italicum (setting [5]), the inhibition at 0.04 ppm worked out at 3%, the inhibition at 0.16 ppm came to 30%, the inhibition at 0.63 ppm was 68% and the inhibition at 2.5 ppm came out at 87%. For the same compound, the inhibition at 10 ppm in the experiment with Penicilium italicum (setting [5]) worked out at 100%.
